Data from PMC7560154, “Novel Antimicrobial Peptide from Temporin L in The Treatment of Staphylococcus pseudintermedius and Malassezia pachydermatis in Polymicrobial Inter-Kingdom Infection” (Antibiotics, 2020).
In brackets after ≈: the same amount, converted by molar mass. Where a SMILES comes first, the peptide text is derived from it. [ ]: non-standard residue; d: D form.

How the values were obtained:
M. pachydermatis = assay: Resistance acquisition test (serial subculture with sublethal peptide 8); assay type: cell-based, Malassezia pachydermatis
Procedure: To evaluate if the yeast acquired resistance to the drug, after a continued treatment, M. pachydermatis was subcultured with a sub lethal concentration of peptide 8 (1/2 MIC). Briefly, a final 3.12 μM peptide 8 concentration was added to yeast inoculum suspension equivalent to 1–3 × 10^6 CFU/mL in Sabouraud dextrose broth (SB) and incubated 72 h at 30 °C (inoculum 1). After this period, optical density was measured and a new yeast subculture with 3.12 μM of peptide 8 was prepared starting from inoculum 1 (inoculum 2). Three days after, optical density was again recorded and a new inoculum in presence of peptide 8 prepared. This was repeated until evident yeast death was observed.

[1] = test system: methicillin-resistant S. pseudintermedius (MRSP); assay: microbe, parasite or virus in culture; assay type: cell-based, Staphylococcus pseudintermedius
Procedure: (§1) MIC of all compounds was determined in Sabouraud Dextrose broth with 1% tween 80 (SB) medium, for M. pachydermatis, and Mueller–Hinton broth (MH), for S. pseudintermedius, by the broth microdilution assay (BMD) in 96-well microtiter plates, as previously reported. Specifically, SB containing 1% Tween 80 was used instead of RPMI 1640 medium. All compounds were dissolved in ethanol and ketoconazole in dimethyl sulfoxide (DMSO). The solutions were serially diluted in SB and MH two-fold from 0.19 to 50 μM. M. pachydermatis suspension was prepared from 3-day-old colonies grown on Sabouraud agar at 30 °C. The final concentration of the yeast inoculum suspensions was equivalent to 1–3 × 10^3 CFU/mL. Bacterial suspensions were diluted to yield an optical density (OD) around 0.5 at 595 nm and further diluted to a final concentration of 1 × 10^6 CFU/mL. The compounds were added to the microbial suspension in each well yielding a final cell concentration of 5 × 10^5 CFU/mL. Positive controls included oxacillin 5 μM (2 μg/mL) and vancomycin 1.4 μM (2 μg/mL) for S. pseudintermedius or ketoconazole 0.2 μM (0.125 μg/mL) for M. pachydermatis. Negative control wells were set to contain bacteria in MH or yeasts in SB plus the amount of ethanol used to dilute each compound. Medium turbidity was measured by a microtiter plate reader (Tecan, Milan, Italy) at 595 nm after 24 h for S. pseudintermedius and 48 h for M. pachydermatis. Absorbance was proportional to microbial growth. The MIC was defined as the lowest concentration of drug that caused a prominent decrease (≥90% inhibition) in visible growth relative to that of the growth control.

[2] = test system: methicillin-susceptible S. pseudintermedius (MSSP); assay: microbe, parasite or virus in culture; assay type: cell-based, Staphylococcus pseudintermedius
Procedure: as §1

[3] = test system: methicillin-susceptible S. pseudintermedius (MSSP); assay: Time-kill assay, MSSP; assay type: cell-based, Staphylococcus pseudintermedius
Procedure: Time kill assay was carried out as previously described. […] Plates were incubated at 37 °C on an orbital shaker at 120 rpm. Viability assessments were performed at 0, 2, 4, 6 and 24 h by plating 0.01 mL undiluted and 10-fold serially diluted samples onto Mueller–Hinton plates in triplicate. After overnight incubation at 37 °C, bacterial colonies were counted and compared with counts from control cultures.

MRSP biofilm formation = assay: Biofilm formation, crystal violet assay, MRSP; assay type: cell-based, Staphylococcus pseudintermedius; conditions: sub-MIC 0.095 to 0.78 μM, 24 h
Procedure: Anti-biofilm activity of peptide 8 was examined by the crystal violet assay previously described with minor modifications. Microtiter plates were inoculated with bacteria at a final density of 10^6 CFU/mL and treated with peptide 8 ranging from 0.095 to 0.78 μM. Control cells were grown in the absence of peptide 8. After 24 h incubation at 37 °C, the supernatant was gently removed, and the wells were rinsed twice with PBS. The amount of biofilm formed in the wells was measured by crystal violet staining and the absorbance of the solution was measured at 595 nm.

MSSP mature biofilm = assay: Mature biofilm biomass, crystal violet assay, MSSP; assay type: cell-based, Staphylococcus pseudintermedius; conditions: MSSP one-day-old biofilm, up to 25 μM, 24 h
Procedure: Biofilms were allowed to form in each well of a 96-well microtiter plate, as described by Stepanovic. After 24 h, planktonic cells were aspirated, and the plates were washed with 200 μL of PBS. Cells biofilms were exposed to 200 μL of peptide 8 at the final concentration ranging from 6.25 to 25 μM and the plate was further incubated for 24 h at 37 °C. Positive controls were non-treated cells incubated with 200 μL of medium broth. At the end of the experiment crystal violet-staining was performed to assess biofilm mass.

MRSP mature biofilm [4] = assay: Mature biofilm metabolic activity, XTT assay, MRSP; assay type: cell-based, Staphylococcus pseudintermedius; conditions: 24 h
Procedure: The metabolic activity of MSSP and MRSP mature biofilms was quantified by the XTT [2,3-bis(2-methyloxy-4-nitro-5-sulfophenyl)-2H-tetrazolium-5-carboxanilide] (Roche Diagnostics, Germany) reduction assay. The assay was conducted as previously described with some modifications. XTT (150 µL) was added to biofilms in each well and the plates were incubated for 40 min at 37 °C in the dark. The reduction of the tetrazolium salt by cellular dehydrogenase into orange formazan dye was photometrically measured at 490 nm. The medium was set as negative control. Viability values for each well were compared to controls.

MRSP mature biofilm [5] = assay: Confocal laser scanning microscopy of mature biofilm (LIVE/DEAD); assay type: cell-based, Staphylococcus pseudintermedius; conditions: MRSP 1-day-old biofilm, 24 h; 12.5 μM in method, 32 μg/mL in Figure 4 legend
Procedure: CLSM was used to confirm the effect of peptide 8 on mature biofilm respect the controls. MSRP were grown in chambered cover glass (μ Slide 4 well; ibidi GmbH, Germany) in a static condition for 24 h. Peptide 8 was added on a 1-day-old biofilm at 12.5 μM. Bacterial suspensions incubated with medium alone were used as a positive control. After 24 h, biofilms were rinsed with PBS and stained by using a LIVE/DEAD® BacLight Bacteria Viability stains (Life Technologies, Italy). After the staining, the images were observed using a LSM 700 inverted confocal laser-scanning microscope (Zeiss, Italy). The areas were scanned using a 10X objective lens with the signal recorded in the green channel for Syto9 (excitation 488 nm, emission 500–525 nm) and in red channel for PI (excitation 500–550 nm, emission 610–650 nm).

CC[C@H](C)[C@H](NC(=O)[C@H](CCCNC(=N)N)NC(=O)[C@@H](CCCCN)NC(=O)[C@@H](CC(C)C)NC(=O)[C@H](Cc1ccccc1)NC(=O)[C@H](CCCCN)NC(=O)[C@H](CO)NC(=O)[C@H](Cc1ccccc1)NC(=O)[C@H](Cc1c[nH]c2ccccc12)NC(=O)[C@@H]1CCCN1C(=O)[C@@H](NC(=O)[C@@H](N)Cc1ccccc1)C(C)C)C(=O)N[C@@H](CC(C)C)C(N)=O [Peptide 8] (H-FVPWFSKF[dL][dK]RIL-NH2; N-terminus assumed)
Log10 CFU/Ml After 15 Generation Subcultures Including TL48 (M. pachydermatis; 3.12 μM (1/2 MIC), 15 subcultures (about 2 months), three independent experiments in triplicate): 2.10 ± 0.12 Log10 CFU/Ml
Log10 CFU/Ml After 1 Generation Subculture Including TL48 (M. pachydermatis; 3.12 μM (1/2 MIC), Sabouraud dextrose broth, 72 h at 30 °C per subculture, three independent experiments in triplicate): 5.80 ± 0.25 Log10 CFU/Ml
Acquisition of resistance after prolonged treatment (M. pachydermatis; 2 months of repeated sublethal concentration treatment): did not acquire resistance
MBC ([1]; 24 h): 12.5 µM (≈ 21 µg/mL)
MIC ([1]; 24 h, read-out: MIC): 6.25 µM (≈ 10.5 µg/mL)
MBC/MIC Ratio ([1]; MRSP): 2
MBC ([2]; 24 h): 3.12 µM (≈ 5.24 µg/mL)
MIC ([2]; 24 h, read-out: MIC): 1.56 µM (≈ 2.62 µg/mL)
MBC/MIC Ratio ([2]; MSSP): 2
Log10CFU/mL 0 h ([3]; peptide at MIC value, 37 °C, 0 h, three independent experiments in triplicate): 5.45 ± 0.25 Log10CFU/mL
Log10CFU/mL 1 h ([3]; peptide at MIC value, 1 h): 0.60 ± 0.12 Log10CFU/mL
Log10CFU/mL 2 h ([3]; peptide at MIC value, 2 h): 0.58 ± 0.32 Log10CFU/mL
Log10CFU/mL 4 h ([3]; peptide at MIC value, 4 h): 0.89 ± 0.15 Log10CFU/mL
Log10CFU/mL 6 h ([3]; peptide at MIC value, 6 h): 0.46 ± 0.15 Log10CFU/mL
Log10CFU/mL 24 h ([3]; peptide at MIC value, 24 h): 4.97 ± 0.30 Log10CFU/mL
Bactericidal or bacteriostatic activity ([3]; time-kill at MIC value): bacteriostatic
Effect on biofilm formation (MRSP biofilm formation): ineffective
Effect on mature biofilm biomass (MSSP mature biofilm): did not affect the biomass
Reduction of biofilm viability (MRSP mature biofilm [4]; 6.25 μM): 38%
Reduction of biofilm viability (MRSP mature biofilm [4]; 12.5 μM): 52%
Effect on biofilm viability at 25 μM (MRSP mature biofilm [4]; 25 μM): reduced effect
Effect on cells within mature biofilm (LIVE/DEAD staining) (MRSP mature biofilm [5]): killed or damaged
